Experimental data: US9902696B2, “1,4-substituted piperidine derivatives” (Cephalon, Inc., priority 2015, dated 2018)
Structures can show the parent of a compound that is named as a salt.

Biological target: T1, recombinant human baculovirus-expressed GST-tagged FASN (Homo sapiens, UniProt P49327)
T1 construct: GST
Test: FASN enzyme activity assay, fluorescence-based detection of CoA with CPM
Assay type: biochemical
Conditions: 5 nM FASN, 150 μM NADPH, 10 μM acetyl-CoA, 25 μM malonyl-CoA, 90 minutes incubation; read-out: IC50 data for Additional Compounds of Formulae I-V(a): Activity
How it was run: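 CoA product reacted with thiol-reactive CPM (diluted to 50 μM in 70% ethanol), read at 390/530 nm after 30 min. Preceding reaction: 90 min, 5 nM recombinant GST-FASN, 150 μM NADPH, 10 μM acetyl-CoA, 25 μM malonyl-CoA, pH 7.5 HEPES, 0.5% DMSO. IC50s fitted by nonlinear sigmoidal regression.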

T1 sequence (P49327 whole entry): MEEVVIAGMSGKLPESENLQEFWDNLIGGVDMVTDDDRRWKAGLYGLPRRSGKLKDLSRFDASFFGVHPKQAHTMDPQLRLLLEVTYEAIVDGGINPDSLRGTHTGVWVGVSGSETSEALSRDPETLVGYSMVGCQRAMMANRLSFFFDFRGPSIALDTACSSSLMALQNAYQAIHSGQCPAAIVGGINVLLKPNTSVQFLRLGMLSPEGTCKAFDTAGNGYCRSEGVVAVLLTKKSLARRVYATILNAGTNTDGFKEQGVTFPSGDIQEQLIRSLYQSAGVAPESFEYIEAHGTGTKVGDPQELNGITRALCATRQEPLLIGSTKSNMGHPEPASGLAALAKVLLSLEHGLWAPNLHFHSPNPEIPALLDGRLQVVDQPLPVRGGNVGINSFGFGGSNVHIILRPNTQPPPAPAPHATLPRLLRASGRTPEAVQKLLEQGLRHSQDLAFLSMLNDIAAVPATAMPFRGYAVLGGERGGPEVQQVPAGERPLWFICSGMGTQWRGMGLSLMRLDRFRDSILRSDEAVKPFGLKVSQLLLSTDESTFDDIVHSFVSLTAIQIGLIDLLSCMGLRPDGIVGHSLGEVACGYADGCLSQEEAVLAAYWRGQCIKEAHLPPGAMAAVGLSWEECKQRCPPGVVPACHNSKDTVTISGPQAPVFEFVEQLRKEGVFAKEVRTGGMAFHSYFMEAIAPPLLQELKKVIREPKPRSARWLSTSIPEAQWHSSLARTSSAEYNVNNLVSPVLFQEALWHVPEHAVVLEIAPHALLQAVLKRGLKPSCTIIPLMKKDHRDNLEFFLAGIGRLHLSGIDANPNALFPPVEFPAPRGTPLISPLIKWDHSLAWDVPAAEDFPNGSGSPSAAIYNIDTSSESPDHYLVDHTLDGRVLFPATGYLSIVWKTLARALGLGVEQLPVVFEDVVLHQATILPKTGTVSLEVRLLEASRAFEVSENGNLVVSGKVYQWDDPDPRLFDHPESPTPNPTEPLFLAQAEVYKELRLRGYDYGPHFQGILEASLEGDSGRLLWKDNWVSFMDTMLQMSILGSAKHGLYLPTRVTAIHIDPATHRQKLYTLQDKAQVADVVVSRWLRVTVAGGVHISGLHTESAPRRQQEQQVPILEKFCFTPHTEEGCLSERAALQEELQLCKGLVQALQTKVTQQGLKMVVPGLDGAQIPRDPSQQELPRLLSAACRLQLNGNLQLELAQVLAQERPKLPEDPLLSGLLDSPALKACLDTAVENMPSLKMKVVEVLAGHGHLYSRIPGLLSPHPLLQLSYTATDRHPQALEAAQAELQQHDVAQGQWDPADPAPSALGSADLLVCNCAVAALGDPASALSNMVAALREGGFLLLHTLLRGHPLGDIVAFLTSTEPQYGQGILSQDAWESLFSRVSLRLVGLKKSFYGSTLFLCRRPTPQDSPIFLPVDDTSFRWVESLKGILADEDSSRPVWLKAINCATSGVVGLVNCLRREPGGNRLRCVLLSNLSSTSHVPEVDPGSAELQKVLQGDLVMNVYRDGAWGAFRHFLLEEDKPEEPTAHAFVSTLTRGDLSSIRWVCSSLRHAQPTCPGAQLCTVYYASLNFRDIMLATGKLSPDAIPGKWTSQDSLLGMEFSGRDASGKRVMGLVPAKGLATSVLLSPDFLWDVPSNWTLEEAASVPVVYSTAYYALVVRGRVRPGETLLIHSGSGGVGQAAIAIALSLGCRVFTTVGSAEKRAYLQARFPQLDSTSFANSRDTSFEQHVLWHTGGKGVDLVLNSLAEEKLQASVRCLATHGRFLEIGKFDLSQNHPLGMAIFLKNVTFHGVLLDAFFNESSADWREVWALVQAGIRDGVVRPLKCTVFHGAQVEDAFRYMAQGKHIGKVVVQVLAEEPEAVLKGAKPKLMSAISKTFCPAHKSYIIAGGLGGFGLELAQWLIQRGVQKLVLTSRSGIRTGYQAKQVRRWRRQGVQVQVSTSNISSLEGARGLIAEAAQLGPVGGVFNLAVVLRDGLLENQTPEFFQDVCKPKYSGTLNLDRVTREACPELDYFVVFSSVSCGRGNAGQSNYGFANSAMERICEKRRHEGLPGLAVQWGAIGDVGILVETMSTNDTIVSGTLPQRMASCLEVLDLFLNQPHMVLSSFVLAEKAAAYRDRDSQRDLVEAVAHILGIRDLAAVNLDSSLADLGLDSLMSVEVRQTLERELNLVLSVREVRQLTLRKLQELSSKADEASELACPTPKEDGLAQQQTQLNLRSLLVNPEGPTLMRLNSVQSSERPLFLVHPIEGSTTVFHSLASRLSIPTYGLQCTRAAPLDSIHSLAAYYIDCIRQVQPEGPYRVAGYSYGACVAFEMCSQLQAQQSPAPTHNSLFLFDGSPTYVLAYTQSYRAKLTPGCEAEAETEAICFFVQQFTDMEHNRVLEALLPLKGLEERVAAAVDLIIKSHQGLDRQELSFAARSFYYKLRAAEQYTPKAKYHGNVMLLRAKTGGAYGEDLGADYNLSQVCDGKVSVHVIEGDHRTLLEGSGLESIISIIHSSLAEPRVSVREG

Row | IC50 [nM] | Compound
1 | 1 to 99 | CCCNC(=O)N1CCC(Oc2ccc(-c3ccn4ccnc4c3C)cc2)CC1 [Example 631, 4-[4-(8-Methylimidazo[1,2-a]pyridin-7-yl)phenoxy]-N-propyl-piperidine-1-carboxamide, HCl]
2 | 1 to 99 | Cc1c(-c2ccc(OC3CCN(C(=O)NCC(C)C)CC3)cc2)ccn2ccnc12 [Example 632, N-Isobutyl-4-[4-(8-methylimidazo[1,2-a]pyridin-7-yl)phenoxy]piperidine-1-carboxamide]
3 | 1 to 99 | Cc1c(-c2ccc(OC3CCN(C(=O)NCC(C)C)CC3)cc2)ccc2ccnn12 [Example 633, N-Isobutyl-4-[4-(7-methylpyrazolo[1,5-a]pyridin-6-yl)phenoxy]piperidine-1-carboxamide]

Tested on: not given
Test: not given
Conditions: not given

Row | Compound | melting point [°C]
4 | O=C(C1CC1)N1CCC(Oc2ccc(-c3cnc4ccccc4c3)cc2)CC1 (as salt: HCl) [Example 100, Cyclopropyl-[4-(4-quinolin-3-yl-phenoxy)-piperidin-1-yl]-methanone,HCl] | 170 to 173
5 | O=C(C1CCCC1)N1CCC(Oc2ccc(-c3cnc4ccccc4c3)cc2)CC1 (as salt: HCl) [Example 102, Cyclopentyl-[4-(4-quinolin-3-yl-phenoxy)-piperidin-1-yl]-methanone, 2HCl] | 145 to 147
6 | CCC(=O)N1CCC(Oc2ccc(-c3cnc4ccccc4c3)nc2)CC1 (as salt: HCl) [Example 140, 1-[4-(6-Quinolin-3-yl-pyridin-3-yloxy)-piperidin-1-yl]-propan-1-one, 2HCl] | 207 to 212
7 | CC(C)C(=O)N1CCC(Oc2ccc(-c3ccc4cccnc4c3)nc2)CC1 (as salt: HCl) [Example 145, 2-Methyl-1-[4-(6-quinolin-7-yl-pyridin-3-yloxy)-piperidin-1-yl]-propan-1-one, 2HCl] | 170 to 179
8 | O=C(C1CC1)N1CCC(Oc2ccc(-c3ccc4cccnc4c3)nc2)CC1 (as salt: HCl) [Example 146, Cyclopropyl-[4-(6-quinolin-7-yl-pyridin-3-yloxy)-piperidin-1-yl]-methanone, 2HCl] | 170 to 175

Continued, values first:

Row | melting point [°C] | Compound
9 | 164 to 166 | O=C(C1CCC1)N1CCC(Oc2ccc(-c3cnc4ccccc4c3)cc2)CC1 (as salt: HCl) [Example 101, Cyclobutyl-[4-(4-quinolin-3-yl-phenoxy)-piperidin-1-yl]-methanone,HCl]
10 | 124 to 130 | CC(C)C(=O)N1CCC(Oc2ncc(-c3cnc4ccccc4c3)cn2)CC1 (as salt: HCl) [Example 138, 2-Methyl-1-[4-(5-quinolin-3-yl-pyrimidin-2-yloxy)-piperidin-1-yl]-propan-1-one, 2HCl]
11 | 150 to 153 | O=C(C1CC1)N1CCC(Oc2ncc(-c3cnc4ccccc4c3)cn2)CC1 (as salt: HCl) [Example 139, Cyclopropyl-[4-(5-quinolin-3-yl-pyrimidin-2-yloxy)-piperidin-1-yl]-methanone, 2HCl]
12 | 99 to 102 | CC(C)C(=O)N1CCC(Oc2ccc(-c3cnc4ccccc4c3)nc2)CC1 (as salt: HCl) [Example 141, 2-Methyl-1-[4-(6-quinolin-3-yl-pyridin-3-yloxy)-piperidin-1-yl]-propan-1-one, 2HCl]
13 | 230 to 234 | O=C(C1CC1)N1CCC(Oc2ccc(-c3cnc4ccccc4c3)nc2)CC1 (as salt: HCl) [Example 142, Cyclopropyl-[4-(6-quinolin-3-yl-pyridin-3-yloxy)-piperidin-1-yl]-methanone, 2HCl]
14 | 90 to 96 | CCC(=O)N1CCC(Oc2ccc(-c3ccc4cccnc4c3)nc2)CC1 (as salt: HCl) [Example 144, 1-[4-(6-Quinolin-7-yl-pyridin-3-yloxy)-piperidin-1-yl]-propan-1-one, 2HCl]
15 | 236 to 245 | CCC(=O)N1CCC(Oc2ccc(-c3ccc4cnccc4c3)nc2)CC1 (as salt: HCl) [Example 147, 1-[4-(6-Isoquinolin-6-yl-pyridin-3-yloxy)-piperidin-1-yl]-propan-1-one, 2HCl]
